From PubChem BioAssay (NCI) come the findings set out here.

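In this assay, cells in 96-well plates receive the compound at five concentrations for 48 hours. Endpoints are linearly interpolated between the surrounding concentrations. The concentration for 50% growth inhibition is given as GI50. TGI denotes the concentration required for complete inhibition of growth.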

Some test systems named below: ACHN renal; HCC-2998 colon; NCI-H226 lung; NCI-H23 lung; NCI-H522 lung; RXF 393 renal; SK-MEL-5 melanoma; SN12C renal; UO-31 renal; UACC-62 melanoma.
What all share (test): inhibition of tumour cell growth, NCI panel, 48 h

On to `NC(=O)c1nc(-c2c(F)cccc2Cl)oc1Nc1ccc(C(=O)N2CCOCC2)cc1`, for which the GI50 with ACHN renal is 2.41 µM; in the experiment on HCC-2998 colon, 14.8 µM; in the experiment with NCI-H226 lung, 0.266 µM; in the experiment with NCI-H23 lung, 2.91 µM; with NCI-H522 lung it was 2.11 µM; with RXF 393 renal, 0.964 µM. Further, the GI50 was 10.5 µM with SK-MEL-5 melanoma, 2.12 µM with SN12C renal and 1.2 µM in the experiment with UO-31 renal. Moreover, the TGI with ACHN renal was above 100 µM; in the experiment with HCC-2998 colon it was above 100 µM; in the experiment with NCI-H226 lung it was above 100 µM; in the experiment with NCI-H23 lung, above 100 µM; in the experiment with NCI-H522 lung, 57.1 µM; with RXF 393 renal, 5.54 µM. Further, the TGI is 35.8 µM in the experiment on SK-MEL-5 melanoma, above 100 µM with SN12C renal and 25.8 µM with UO-31 renal.
For the compound `S=C(Sc1ccc(Cl)cc1)Sc1ccc(Cl)cc1`, the GI50 with ACHN renal is 3.23 µM; in the experiment with HCC-2998 colon, 3.08 µM; with NCI-H226 lung, 2.1 µM; in the experiment on NCI-H23 lung it was 1.75 µM; with NCI-H522 lung, 1.11 µM; in the experiment on RXF 393 renal it was 2.04 µM. In addition, the GI50 with SK-MEL-5 melanoma was 1.68 µM; with SN12C renal, 2.12 µM; in the experiment with UACC-62 melanoma, 3.15 µM; with UO-31 renal, 1.31 µM. For the same compound, the TGI in the experiment on ACHN renal was determined as 11 µM; in the experiment on HCC-2998 colon, 10.3 µM; in the experiment with NCI-H226 lung, 4.84 µM; in the experiment on NCI-H23 lung it was 3.78 µM; with NCI-H522 lung it was 2.33 µM; with RXF 393 renal, 3.87 µM. In addition, the TGI with SK-MEL-5 melanoma was 3.11 µM; in the experiment on SN12C renal, 5.34 µM; in the experiment on UACC-62 melanoma, 10.6 µM; in the experiment with UO-31 renal, 2.63 µM.
Regarding `COS(=O)c1cc(Cl)cc(Cl)c1OC(=O)CSSCC(=O)Oc1c(Cl)cc(Cl)cc1S(=O)OC` (configuration not stated), the TGI with ACHN renal came to 64.2 µM; in the experiment on HCC-2998 colon, 40.3 µM; in the experiment on NCI-H23 lung it was 27.8 µM; in the experiment on NCI-H522 lung, 30.2 µM; in the experiment on RXF 393 renal it was 43.7 µM; in the experiment on SK-MEL-5 melanoma it was 32.4 µM. The TGI with SN12C renal was 37.3 µM; in the experiment on UACC-62 melanoma, 21.4 µM; in the experiment with UO-31 renal, 60 µM.
On to `C[C@]12CCc3nc(Nc4ccc(O)cc4)sc3C1=CC[C@@H]1[C@@H]2CC[C@]2(C)/C(=N/NC(N)=S)CC[C@@H]12`, for which the GI50 is 1.59 µM in the experiment with ACHN renal; 1.89 µM in the experiment with HCC-2998 colon; 1.71 µM in the experiment on NCI-H226 lung; 1.8 µM with NCI-H23 lung; 1.23 µM with RXF 393 renal; 1.66 µM with SK-MEL-5 melanoma. In addition, the GI50 was 1.53 µM in the experiment on SN12C renal, 1.43 µM in the experiment with UACC-62 melanoma and 1.3 µM in the experiment with UO-31 renal. In addition, the TGI stood at 2.99 µM in the experiment with ACHN renal; 4.3 µM with HCC-2998 colon; 4.05 µM in the experiment with NCI-H226 lung; 4.36 µM in the experiment with NCI-H23 lung; 2.69 µM in the experiment with RXF 393 renal; 3.14 µM in the experiment with SK-MEL-5 melanoma. Moreover, the TGI in the experiment with SN12C renal is 3.37 µM; with UACC-62 melanoma it was 2.89 µM; in the experiment with UO-31 renal it was 2.57 µM.
`CO[C@H]1C(=O)[C@]2(C)[C@@H](OC)C[C@H]3OC[C@@]3(OC(C)=O)[C@H]2[C@H](OC(=O)c2ccccc2)[C@]2(O)C[C@H](OC(=O)[C@H](O)[C@@H](NC(=O)OC(C)(C)C)c3ccccc3)C(C)=C1C2(C)C`: the GI50 in the experiment with ACHN renal is 12.6 µM; in the experiment with HCC-2998 colon, below 0.01 µM; in the experiment with NCI-H226 lung, 2.09 µM; in the experiment on NCI-H23 lung it was below 0.01 µM; in the experiment with RXF 393 renal, below 0.01 µM; with SK-MEL-5 melanoma, below 0.01 µM. Besides, the GI50 in the experiment on SN12C renal was below 0.01 µM; in the experiment with UACC-62 melanoma, below 0.0147 µM; with UO-31 renal, below 0.01 µM. Also, the TGI with ACHN renal was above 100 µM; with HCC-2998 colon it was below 0.0168 µM; in the experiment on NCI-H226 lung it was 39.7 µM; in the experiment on NCI-H23 lung, above 100 µM; in the experiment on RXF 393 renal, 10.7 µM; in the experiment with SK-MEL-5 melanoma, 17.3 µM. Further, the figures for the TGI in the experiment with SN12C renal, in the experiment on UACC-62 melanoma and in the experiment on UO-31 renal were above 100 µM, 56.8 µM and 54.3 µM, respectively.
For the compound `CCN(CC)CCCC(Nc1c2ccc(Cl)cc2nc2ccc(OC)cc12)c1ccc(Cl)cc1` (configuration not stated), the GI50 in the experiment with ACHN renal was 1.38 µM; in the experiment with HCC-2998 colon it was 1.47 µM; in the experiment on NCI-H23 lung it was 1.43 µM; in the experiment with NCI-H522 lung, 1.46 µM; in the experiment with RXF 393 renal it was 1.03 µM; with SK-MEL-5 melanoma, 1.25 µM. In the experiment on UO-31 renal, the GI50 was 1.58 µM. The TGI was 2.81 µM with ACHN renal; 3.01 µM in the experiment on HCC-2998 colon; 2.98 µM in the experiment with NCI-H23 lung; 3.09 µM in the experiment with NCI-H522 lung; 2.31 µM in the experiment with RXF 393 renal; 2.54 µM in the experiment on SK-MEL-5 melanoma. The TGI with UO-31 renal turned out to be 3.08 µM.
In the case of `COC(=O)C1CCC(C)CC1=O` (configuration not stated), the TGI in the experiment on ACHN renal, with HCC-2998 colon, with NCI-H23 lung, in the experiment on NCI-H522 lung, in the experiment on RXF 393 renal and in the experiment with SK-MEL-5 melanoma was above 100 µM throughout. Besides, the TGI with SN12C renal, with UACC-62 melanoma and in the experiment with UO-31 renal was above 100 µM in each case.
As for `Cc1ccc(-n2nc(C(OC3OC(CO)C(O)C(O)C3O)C(O)CO)c3nc4cc(C)c(C)cc4nc32)cc1` (configuration not stated), the TGI in the experiment with ACHN renal, with HCC-2998 colon, with NCI-H23 lung, in the experiment on NCI-H522 lung, in the experiment on RXF 393 renal and in the experiment with SN12C renal was above 100 µM in each case. Also, the TGI in the experiment on UACC-62 melanoma and in the experiment on UO-31 renal was above 100 µM throughout.
Turning to `CS(=O)(=O)OCCN1CCN(C(=O)c2ccc(Cl)c3c(Nc4ccc(S(=O)(=O)N=C(N)N)cc4)c4ccccc4nc23)CC1`, the TGI with ACHN renal, in the experiment on HCC-2998 colon, in the experiment on NCI-H226 lung, with NCI-H23 lung, in the experiment with RXF 393 renal and in the experiment on SK-MEL-5 melanoma was above 100 µM in each case. Moreover, the TGI with SN12C renal, with UACC-62 melanoma and in the experiment with UO-31 renal was above 100 µM throughout.
On to `Cc1nc2ccncc2[nH]1`, for which the TGI in the experiment on ACHN renal, in the experiment on HCC-2998 colon, with NCI-H226 lung, with NCI-H23 lung, in the experiment with RXF 393 renal and in the experiment on SK-MEL-5 melanoma was above 100 µM throughout. For the same compound, the TGI with SN12C renal, in the experiment with UACC-62 melanoma and in the experiment with UO-31 renal was above 100 µM in each case.
